Laboratory results reported in patent US20250114345A1, “COMPOUNDS AND COMPOSITIONS AS CBP/P300 DEGRADERS AND USES THEREOF” (Oncopia Therapeutics, Inc. d/b/a/ SK Life Science Labs, priority 2023, published 2025).

Assays:
[1] = molecular target: T1, CBP (Homo sapiens, UniProt Q92793); experiment: CBP degradation, HiBit technology in A549 CBP HiBit cells (24 h); format: cell-based; conditions: 24 hrs post treatment
T1 construct: host or cells: A549 CBP HiBit cells
Method: p300 and CBP degradation potency and Dmax were determined using in cell western (ICW) assay technology in H1299 cells or HiBit technology in A549 HiBit cells.
A549 P300 HiBit and A549 CBP HiBit cells were plated in separate 384-well, TC treated, white-opaque, flat-bottomed microplate. Cells were plated at a cell density of 0.2×10^4 cells per well in assay media comprised of F-12K, 10% heat inactivated FBS, and 1% penicillin/streptomycin. Assay microplates containing HiBit cells were placed in a 37° C., 5% CO2, tissue culture incubator and left to equilibrate overnight. The next day cells were treated with serial dilutions of test compound made up of 10 mM stock solutions in DMSO. 384-Well plates containing treated cells were then placed back into a 37° C., 5% CO2, tissue culture incubator. Assay microplates containing A549 P300 HiBit cells were incubated for 2 hrs post treatment before P300 destruction was assessed, while microplates containing A549 CBP HiBit cells were incubated for 24 hrs post treatment before CBP destruction was determined. On the day of each assay time point, microplates were removed from the tissue culture incubator and prepared HiBit Lytic detection buffer (Promega, cat #N3O40) was added to each plate. Plates were covered with aluminum foil and incubated for ten minutes at room temperature on an orbital shaker. After incubation, luminescent signal of each plate was measured using the Envision instrument (Perkin Elmer).

[2] = molecular target: T2, p300 (Homo sapiens, UniProt Q09472); experiment: P300 degradation, HiBit technology in A549 P300 HiBit cells (2 h); format: cell-based; conditions: 2 hrs post treatment; for Dmax: A549, A549 P300 HiBit cells; for DC50: A549 P300 HiBit cells
T2 construct: host or cells: A549 P300 HiBit cells
Method in brief: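 A549 cells carrying HiBit-tagged p300 or CBP, seeded overnight at 37 °C/5% CO2, then treated with serial compound dilutions from 10 mM DMSO stocks. Incubation was 2 h for p300 and 24 h for CBP, followed by HiBit lytic detection reagent for 10 min at room temperature. Luminescence read gave degradation potency and Dmax.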

T2 sequence (Q09472 whole entry): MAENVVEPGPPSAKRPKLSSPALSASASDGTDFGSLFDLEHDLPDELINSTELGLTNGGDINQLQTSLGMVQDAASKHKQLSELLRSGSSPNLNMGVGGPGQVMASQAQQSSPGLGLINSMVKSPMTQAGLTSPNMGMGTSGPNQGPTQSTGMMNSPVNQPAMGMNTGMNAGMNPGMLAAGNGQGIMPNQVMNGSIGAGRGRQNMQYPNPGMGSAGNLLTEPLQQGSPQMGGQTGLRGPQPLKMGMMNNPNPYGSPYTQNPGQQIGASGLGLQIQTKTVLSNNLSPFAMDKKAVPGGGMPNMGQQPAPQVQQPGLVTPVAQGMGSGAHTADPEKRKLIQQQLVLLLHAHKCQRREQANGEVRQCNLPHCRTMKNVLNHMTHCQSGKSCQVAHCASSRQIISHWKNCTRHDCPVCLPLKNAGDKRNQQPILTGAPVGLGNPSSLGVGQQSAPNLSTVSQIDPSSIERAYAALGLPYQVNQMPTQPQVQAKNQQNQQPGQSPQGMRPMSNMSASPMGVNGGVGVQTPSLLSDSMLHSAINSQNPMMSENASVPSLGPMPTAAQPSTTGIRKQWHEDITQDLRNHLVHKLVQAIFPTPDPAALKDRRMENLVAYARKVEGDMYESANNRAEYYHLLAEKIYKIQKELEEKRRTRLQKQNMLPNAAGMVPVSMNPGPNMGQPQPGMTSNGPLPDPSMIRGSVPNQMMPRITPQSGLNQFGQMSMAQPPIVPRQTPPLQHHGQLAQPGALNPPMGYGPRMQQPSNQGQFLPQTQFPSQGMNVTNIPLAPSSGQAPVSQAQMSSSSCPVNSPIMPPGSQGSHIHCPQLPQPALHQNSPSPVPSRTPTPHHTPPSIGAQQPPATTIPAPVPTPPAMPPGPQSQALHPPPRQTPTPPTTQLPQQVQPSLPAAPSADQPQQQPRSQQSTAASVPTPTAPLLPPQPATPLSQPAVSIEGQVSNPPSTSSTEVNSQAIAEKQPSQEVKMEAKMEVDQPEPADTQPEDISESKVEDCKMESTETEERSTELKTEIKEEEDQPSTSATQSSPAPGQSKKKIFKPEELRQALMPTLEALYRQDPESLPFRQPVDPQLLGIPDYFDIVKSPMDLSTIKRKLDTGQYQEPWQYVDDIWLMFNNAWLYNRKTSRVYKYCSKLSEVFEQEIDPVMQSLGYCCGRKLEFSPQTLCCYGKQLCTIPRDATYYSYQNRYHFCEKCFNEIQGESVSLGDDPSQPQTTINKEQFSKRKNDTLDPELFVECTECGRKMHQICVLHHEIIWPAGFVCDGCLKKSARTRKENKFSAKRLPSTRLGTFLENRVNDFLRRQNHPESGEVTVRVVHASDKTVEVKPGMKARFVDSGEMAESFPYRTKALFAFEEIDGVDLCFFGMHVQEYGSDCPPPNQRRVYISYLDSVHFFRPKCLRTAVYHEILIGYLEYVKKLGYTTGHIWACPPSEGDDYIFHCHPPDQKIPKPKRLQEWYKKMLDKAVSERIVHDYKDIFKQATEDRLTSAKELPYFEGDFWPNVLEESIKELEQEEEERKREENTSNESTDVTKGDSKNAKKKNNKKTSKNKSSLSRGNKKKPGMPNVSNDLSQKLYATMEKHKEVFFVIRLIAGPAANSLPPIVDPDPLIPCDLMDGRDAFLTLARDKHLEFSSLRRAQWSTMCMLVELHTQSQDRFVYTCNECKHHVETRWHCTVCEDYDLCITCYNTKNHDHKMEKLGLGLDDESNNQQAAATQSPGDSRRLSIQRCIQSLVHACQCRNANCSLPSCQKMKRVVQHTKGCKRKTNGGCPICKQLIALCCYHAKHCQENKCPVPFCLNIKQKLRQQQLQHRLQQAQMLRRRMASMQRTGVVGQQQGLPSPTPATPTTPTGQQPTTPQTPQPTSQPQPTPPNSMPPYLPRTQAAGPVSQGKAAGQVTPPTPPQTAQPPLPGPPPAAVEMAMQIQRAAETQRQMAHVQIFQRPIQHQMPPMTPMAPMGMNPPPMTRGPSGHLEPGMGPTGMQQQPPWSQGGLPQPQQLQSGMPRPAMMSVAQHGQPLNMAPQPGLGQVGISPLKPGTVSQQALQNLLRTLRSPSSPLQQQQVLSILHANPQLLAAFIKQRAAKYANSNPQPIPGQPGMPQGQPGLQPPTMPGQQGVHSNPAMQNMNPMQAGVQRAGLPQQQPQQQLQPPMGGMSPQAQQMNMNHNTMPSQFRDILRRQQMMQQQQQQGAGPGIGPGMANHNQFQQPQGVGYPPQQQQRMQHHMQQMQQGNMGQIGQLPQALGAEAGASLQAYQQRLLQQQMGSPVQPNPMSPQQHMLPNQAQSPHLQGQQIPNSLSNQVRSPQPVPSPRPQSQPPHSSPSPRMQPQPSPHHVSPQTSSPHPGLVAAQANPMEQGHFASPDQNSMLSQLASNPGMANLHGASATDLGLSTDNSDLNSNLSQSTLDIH
T1 sequence (Q92793 whole entry): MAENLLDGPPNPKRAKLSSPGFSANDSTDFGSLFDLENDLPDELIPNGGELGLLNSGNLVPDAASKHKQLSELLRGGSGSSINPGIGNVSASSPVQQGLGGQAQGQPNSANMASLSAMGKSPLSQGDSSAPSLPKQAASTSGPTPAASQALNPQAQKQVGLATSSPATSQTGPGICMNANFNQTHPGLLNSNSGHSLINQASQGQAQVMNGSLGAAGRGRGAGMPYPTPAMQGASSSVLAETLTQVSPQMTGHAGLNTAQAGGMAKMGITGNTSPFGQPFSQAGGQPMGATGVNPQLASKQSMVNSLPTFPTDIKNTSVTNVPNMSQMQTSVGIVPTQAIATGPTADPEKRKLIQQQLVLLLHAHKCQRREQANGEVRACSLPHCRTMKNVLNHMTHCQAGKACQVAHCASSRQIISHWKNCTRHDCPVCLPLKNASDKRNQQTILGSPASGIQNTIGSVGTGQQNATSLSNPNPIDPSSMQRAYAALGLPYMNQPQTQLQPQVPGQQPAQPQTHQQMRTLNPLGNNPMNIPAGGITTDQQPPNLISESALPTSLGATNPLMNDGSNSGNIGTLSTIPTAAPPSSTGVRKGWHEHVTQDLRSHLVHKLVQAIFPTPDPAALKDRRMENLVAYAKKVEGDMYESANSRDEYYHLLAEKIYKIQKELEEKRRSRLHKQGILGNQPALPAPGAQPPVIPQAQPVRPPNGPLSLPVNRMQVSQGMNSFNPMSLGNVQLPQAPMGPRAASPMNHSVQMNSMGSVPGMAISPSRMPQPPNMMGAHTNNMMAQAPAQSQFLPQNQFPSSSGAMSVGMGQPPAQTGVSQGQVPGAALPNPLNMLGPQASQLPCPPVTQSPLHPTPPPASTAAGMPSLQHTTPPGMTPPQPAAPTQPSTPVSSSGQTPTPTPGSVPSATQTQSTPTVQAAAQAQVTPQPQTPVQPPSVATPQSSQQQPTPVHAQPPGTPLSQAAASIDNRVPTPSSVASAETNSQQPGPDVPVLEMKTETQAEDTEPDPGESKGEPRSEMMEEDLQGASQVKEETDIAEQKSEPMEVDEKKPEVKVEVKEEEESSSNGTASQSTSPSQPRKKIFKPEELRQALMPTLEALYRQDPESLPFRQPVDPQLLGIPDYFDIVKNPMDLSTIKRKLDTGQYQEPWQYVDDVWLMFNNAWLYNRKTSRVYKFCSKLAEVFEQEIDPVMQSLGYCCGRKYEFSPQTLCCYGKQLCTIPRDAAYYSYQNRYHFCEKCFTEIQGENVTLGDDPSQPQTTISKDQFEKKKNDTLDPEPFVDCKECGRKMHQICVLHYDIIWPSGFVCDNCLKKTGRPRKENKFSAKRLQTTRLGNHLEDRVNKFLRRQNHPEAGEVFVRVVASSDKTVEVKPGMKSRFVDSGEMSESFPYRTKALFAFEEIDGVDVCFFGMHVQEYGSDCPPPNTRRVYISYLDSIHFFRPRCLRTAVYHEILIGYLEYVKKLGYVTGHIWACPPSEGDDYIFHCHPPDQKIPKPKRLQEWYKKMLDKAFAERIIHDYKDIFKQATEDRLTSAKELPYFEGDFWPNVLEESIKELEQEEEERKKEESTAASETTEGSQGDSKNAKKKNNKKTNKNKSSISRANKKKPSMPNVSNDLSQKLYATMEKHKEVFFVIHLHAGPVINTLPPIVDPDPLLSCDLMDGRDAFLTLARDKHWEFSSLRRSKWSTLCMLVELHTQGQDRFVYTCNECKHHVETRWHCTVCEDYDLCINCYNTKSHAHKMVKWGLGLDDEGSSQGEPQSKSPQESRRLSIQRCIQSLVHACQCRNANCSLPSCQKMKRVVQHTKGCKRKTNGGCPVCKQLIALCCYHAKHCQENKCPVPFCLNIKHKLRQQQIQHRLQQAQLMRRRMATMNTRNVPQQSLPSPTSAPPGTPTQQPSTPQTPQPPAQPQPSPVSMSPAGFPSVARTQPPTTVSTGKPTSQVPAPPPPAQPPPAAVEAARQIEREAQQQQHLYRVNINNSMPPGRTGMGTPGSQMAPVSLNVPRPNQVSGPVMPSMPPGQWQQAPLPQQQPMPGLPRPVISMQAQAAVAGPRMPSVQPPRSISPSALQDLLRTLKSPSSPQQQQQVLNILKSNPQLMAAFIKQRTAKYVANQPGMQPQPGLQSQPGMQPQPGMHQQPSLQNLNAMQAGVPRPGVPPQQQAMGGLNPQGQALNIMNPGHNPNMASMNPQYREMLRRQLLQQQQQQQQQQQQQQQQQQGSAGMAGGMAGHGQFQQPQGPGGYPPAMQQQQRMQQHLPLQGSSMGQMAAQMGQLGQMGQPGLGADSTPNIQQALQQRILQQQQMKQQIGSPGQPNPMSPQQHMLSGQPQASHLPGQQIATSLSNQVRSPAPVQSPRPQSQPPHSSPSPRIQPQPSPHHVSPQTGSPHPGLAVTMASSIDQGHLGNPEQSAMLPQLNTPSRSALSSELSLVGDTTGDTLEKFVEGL

`CC(C)c1cc(-c2cccc3cc(-c4ccc(C(=O)NCC#Cc5cc(OC6CCC(=O)NC6=O)nn5C)nc4)ncc23)cc2c1n(C)c(=O)n2C` (stereo not shown) [Example A29, N-(3-(3-((2,6-Dioxopiperidin-3-yl)oxy)-1-methyl-1H-pyrazol-5-yl)prop-2-yn-1-yl)-5-(8-(7-isopropyl-1,3-dimethyl-2-oxo-2,3-dihydro-1H-benzo[d]imidazol-5-yl)isoquinolin-3-yl)picolinamide] showed a DC50 [1] of over 1000 nM, a Dmax [1] of under 20% and a Dmax [2] of over 80%. It also gave a DC50 [2] of 1 to 9.9 nM.

Compound `Cc1cc(-c2ccc(N(C)c3cc(C(C)C)c4c(c3)n(C)c(=O)n4C)cn2)cnc1C(=O)NCC#Cc1cccc(NC2CCC(=O)NC2=O)c1` (stereo not shown) [Example A34, N-(3-(3-((2,6-Dioxopiperidin-3-yl)amino)phenyl)prop-2-yn-1-yl)-5-((7-isopropyl-1,3-dimethyl-2-oxo-2,3-dihydro-1H-benzo[d]imidazol-5-yl)(methyl)amino)-5′-methyl-[2,3′-bipyridine]-6′-carboxamide] has a DC50 [1] of over 1000 nM, a Dmax [1] of under 20% and a Dmax [2] of over 80%. For the same compound, the DC50 [2] was 10 to 99 nM.

For `CC(C)c1cc(-c2cccc3cc(-c4ccc(C(=O)NCC#Cc5ccc6cnn(C7CCC(=O)NC7=O)c6c5Cl)nc4)ncc23)cc2c1n(C)c(=O)n2C` (stereo not shown) [Example A39, N-(3-(7-Chloro-1-(2,6-dioxopiperidin-3-yl)-1H-indazol-6-yl)prop-2-yn-1-yl)-5-(8-(7-isopropyl-1,3-dimethyl-2-oxo-2,3-dihydro-1H-benzo[d]imidazol-5-yl)isoquinolin-3-yl)picolinamide], the DC50 [1] was 100 to 999 nM, the Dmax [1] was 20 to 39% and the Dmax [2] was over 80%. The DC50 [2] was 1 to 9.9 nM.

`Cc1cc(-c2ccc(N(C)c3cc(C4CCOCC4)c4c(c3)n(C)c(=O)n4C)cn2)cnc1C(=O)NCC#Cc1cccc(NC2CCC(=O)NC2=O)c1` (stereo not shown) [Example A45, 5-((1,3-dimethyl-2-oxo-7-(tetrahydro-2H-pyran-4-yl)-2,3-dihydro-1H-benzo[d]imidazol-5-yl) (methyl)amino)-N-(3-(3-((2,6-dioxopiperidin-3-yl)amino)phenyl)prop-2-yn-1-yl)-5′-methyl-[2,3′-bipyridine]-6′-carboxamide] was tested, and the DC50 [1] was over 1000 nM, the Dmax [1] was under 20% and the Dmax [2] was over 80%. The DC50 [2] was 1 to 9.9 nM.

`Cc1cc(-c2ncc(N(C)c3cc(C(C)C)c4c(c3)n(C)c(=O)n4C)cn2)cnc1C(=O)NCC#Cc1cccc(NC2CCC(=O)NC2=O)c1` (stereo not shown) [Example A51, N-(3-(3-((2,6-dioxopiperidin-3-yl)amino)phenyl)prop-2-yn-1-yl)-5-(5-((7-isopropyl-1,3-dimethyl-2-oxo-2,3-dihydro-1H-benzo [d]imidazol-5-yl)(methyl)amino)pyrimidin-2-yl)-3-methylpicolinamide] was tested, and the DC50 [1] was over 1000 nM, the Dmax [1] was under 20% and the Dmax [2] was over 80%. It also gave a DC50 [2] of 1 to 9.9 nM.

Work on `Cc1cc(-c2ncc(N(C)c3cc(C4CCOCC4)c4c(c3)n(C)c(=O)n4C)cn2)cnc1C(=O)NCC#Cc1ccc2occ(C3CCC(=O)NC3=O)c2c1` (stereo not shown) [Example A53, 5-(5-((1,3-dimethyl-2-oxo-7-(tetrahydro-2H-pyran-4-yl)-2,3-dihydro-1H-benzo[d]imidazol-5-yl)(methyl)amino)pyrimidin-2-yl)-N-(3-(3-(2,6-dioxo-piperidin-3-yl)benzofuran-5-yl)prop-2-yn-1-yl)-3-methylpicolinamide] yielded a DC50 [1] of over 1000 nM, a Dmax [1] of under 20% and a Dmax [2] of over 80%. The DC50 [2] was under 1 nM.

In the case of `Cc1cc(-c2ncc(N(C)c3cc(C4CCOCC4)c4c(c3)n(C)c(=O)n4C)cn2)cnc1C(=O)NCC#Cc1ccc2occ([C@H]3CCC(=O)NC3=O)c2c1` [Example A54, (R)-5-(5-((1,3-dimethyl-2-oxo-7-(tetrahydro-2H-pyran-4-yl)-2,3-dihydro-1H-benzo[d]imidazol-5-yl)(methyl)amino)pyrimidin-2-yl)-N-(3-(3-(2,6-dioxopiperidin-3-yl)benzofuran-5-yl)prop-2-yn-1-yl)-3-methylpicolinamide], the DC50 [1] is reported as over 1000 nM, the Dmax [1] is reported as under 20% and the Dmax [2] is reported as over 80%. It also gave a DC50 [2] of 1 to 9.9 nM.

Work on `Cc1cc(-c2ncc(N(C)c3cc(C4CCOCC4)c4c(c3)n(C)c(=O)n4C)cn2)cnc1C(=O)NCC#Cc1ccc2occ([C@@H]3CCC(=O)NC3=O)c2c1` [Example A55, (S)-5-(5-((1,3-dimethyl-2-oxo-7-(tetrahydro-2H-pyran-4-yl)-2,3-dihydro-1H-benzo[d]imidazol-5-yl)(methyl)amino)pyrimidin-2-yl)-N-(3-(3-(2,6-dioxo-piperidin-3-yl)benzofuran-5-yl)prop-2-yn-1-yl)-3-methylpicolinamide] yielded a DC50 [1] of over 1000 nM, a Dmax [1] of under 20% and a Dmax [2] of over 80%. The DC50 [2] was 1 to 9.9 nM.

Work on `CC(C)c1cc(C2=CC(C)(C)Oc3cc(-c4ccc(C(=O)NCC#Cc5ccc6occ(C7CCC(=O)NC7=O)c6c5)nc4)c(F)cc32)cc2c1n(C)c(=O)n2C` (stereo not shown) [Example A57, N-(3-(3-(2,6-dioxopiperidin-3-yl)benzofuran-5-yl)prop-2-yn-1-yl)-5-(6-fluoro-4-(7-isopropyl-1,3-dimethyl-2-oxo-2,3-dihydro-1H-benzo[d]imidazol-5-yl)-2,2-dimethyl-2H-chromen-7-yl)picolinamide] yielded a DC50 [1] of over 1000 nM, a Dmax [1] of under 20% and a Dmax [2] of over 80%. For the same compound, the DC50 [2] was 10 to 99 nM.

`CC(C)c1cc(N2CCOc3cc(-c4ccc(C(=O)NCC#Cc5ccc6occ(C7CCC(=O)NC7=O)c6c5)nc4)ncc32)cc2c1n(C)c(=O)n2C` (stereo not shown) [Example A58, N-(3-(3-(2,6-dioxopiperidin-3-yl)benzofuran-5-yl)prop-2-yn-1-yl)-5-(4-(7-isopropyl-1,3-dimethyl-2-oxo-2,3-dihydro-1H-benzo[d]imidazol-5-yl)-3,4-dihydro-2H-pyrido[4,3-b][1,4]oxazin-7-yl)picolinamide] was tested, and the DC50 [1] was over 1000 nM, the Dmax [1] was under 20% and the Dmax [2] was over 80%. It also gave a DC50 [2] of 1 to 9.9 nM.

In the case of `Cc1cc(-c2cc3cccc(-c4ccc5c(c4)n(C)c(=O)n5C)c3cn2)cnc1C(=O)NCC#Cc1ccc2occ([C@@H]3CCC(=O)NC3=O)c2c1` [Example A61, (S)-5-(8-(1,3-dimethyl-2-oxo-2,3-dihydro-1H-benzo[d]imidazol-5-yl)isoquinolin-3-yl)-N-(3-(3-(2,6-dioxo-piperidin-3-yl)benzofuran-5-yl)prop-2-yn-1-yl)-3-methylpicolinamide], the DC50 [1] is reported as over 1000 nM, the Dmax [1] is reported as under 20% and the Dmax [2] is reported as over 80%. The DC50 [2] was 1 to 9.9 nM.

Compound `Cc1c(-c2ccc(C(=O)NCC#Cc3ccc4occ(C5CCC(=O)NC5=O)c4c3)nc2)ncc2c(-c3ccc4c(c3)n(C)c(=O)n4C)cccc12` (stereo not shown) [Example A63, 5-(8-(1,3-dimethyl-2-oxo-2,3-dihydro-1H-benzo[d]imidazol-5-yl)-4-methylisoquinolin-3-yl)-N-(3-(3-(2,6-dioxo-piperidin-3-yl)benzofuran-5-yl)prop-2-yn-1-yl)picolinamide] has a DC50 [1] of 100 to 999 nM, a Dmax [1] of under 20% and a Dmax [2] of over 80%. The DC50 [2] was under 1 nM.

`Cn1c(=O)n(C)c2c(F)cc(-c3cccc4cc(-c5ccc(C(=O)NCC#Cc6ccc7occ(C8CCC(=O)NC8=O)c7c6)nc5)ncc34)cc21` (stereo not shown) [Example A64, N-(3-(3-(2,6-dioxopiperidin-3-yl)benzofuran-5-yl)prop-2-yn-1-yl)-5-(8-(7-fluoro-1,3-dimethyl-2-oxo-2,3-dihydro-1H-benzo[d]imidazol-5-yl)isoquinolin-3-yl)picolinamide] gave a DC50 [1] of over 1000 nM, a Dmax [1] of under 20% and a Dmax [2] of over 80%. The DC50 [2] was 1 to 9.9 nM.

In the case of `Cc1cc(-c2cc3cccc(-c4cc(F)c5c(c4)n(C)c(=O)n5C)c3cn2)cnc1C(=O)NCC#Cc1ccc2occ(C3CCC(=O)NC3=O)c2c1` (stereo not shown) [Example A66, N-(3-(3-(2,6-dioxopiperidin-3-yl)benzofuran-5-yl)prop-2-yn-1-yl)-5-(8-(7-fluoro-1,3-dimethyl-2-oxo-2,3-dihydro-1H-benzo[d]imidazol-5-yl)isoquinolin-3-yl)-3-methylpicolinamide], the DC50 [1] is reported as over 1000 nM, the Dmax [1] is reported as under 20% and the Dmax [2] is reported as over 80%. It also gave a DC50 [2] of 1 to 9.9 nM.

`Cc1cc(N2CCOc3nc(-c4ccc(C(=O)NCC#Cc5ccc6occ(C7CCC(=O)NC7=O)c6c5)nc4)ncc32)cc2c1n(C)c(=O)n2C` (stereo not shown) [Example A68, N-(3-(3-(2,6-dioxopiperidin-3-yl)benzofuran-5-yl)prop-2-yn-1-yl)-5-(5-(1,3,7-trimethyl-2-oxo-2,3-dihydro-1H-benzo[d]imidazol-5-yl)-6,7-dihydro-5H-pyrimido [4,5-b][1,4]oxazin-2-yl)picolinamide] was tested, and the DC50 [1] was over 1000 nM, the Dmax [1] was under 20% and the Dmax [2] was over 80%. The DC50 [2] was 1 to 9.9 nM.

`Cc1cc(-c2cc3cccc(-c4cc5c(c(N6CC7CCC(C6)O7)n4)n(C)c(=O)n5C)c3cn2)cnc1C(=O)NCC#Cc1ccc2occ(C3CCC(=O)NC3=O)c2c1` (stereo not shown) [Example A69, 5-(8-(4-(8-oxa-3-azabicyclo [3.2.1]octan-3-yl)-1,3-dimethyl-2-oxo-2,3-dihydro-1H-imidazo[4,5-c]pyridin-6-yl)isoquinolin-3-yl)-N-(3-(3-(2,6-dioxo-piperidin-3-yl)benzofuran-5-yl)prop-2-yn-1-yl)-3-methylpicolinamide] was tested, and the DC50 [1] was over 1000 nM, the Dmax [1] was under 20% and the Dmax [2] was over 80%. For the same compound, the DC50 [2] was 1 to 9.9 nM.
